Test results: US20230406859A1, “METHOTREXATE ANALOGS AND METHODS OF USE” (The United States of America, as represented by the …, priority 2020, published 2023)
Read-outs that look alike come from different tables or passages of the source.

How the values were obtained:
[1] = biological target: T1, DHFR (Homo sapiens, UniProt P00374); assay: Western blot detection of DHFR levels in fibroblasts; format: cell-based; conditions: 16 h at 1 μM
T1 construct: Western blot detection of DHFR levels after treatment of HBL1 cells for 16 h; endogenous in cells; host or cells: HBL1 lymphoma cell line
T1 sequence (P00374 1-187): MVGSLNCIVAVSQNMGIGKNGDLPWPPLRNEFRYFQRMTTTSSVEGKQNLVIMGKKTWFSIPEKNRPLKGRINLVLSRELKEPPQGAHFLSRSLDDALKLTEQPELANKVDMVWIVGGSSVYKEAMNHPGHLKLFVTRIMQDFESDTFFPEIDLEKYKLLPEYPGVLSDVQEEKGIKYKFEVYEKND
Description: (§1) Cell Culture Methods: Cells (HBL1, immortalized fibroblasts from a healthy donor, or 293T) were seeded at the numbers indicated in a 12-well plate in 500 ul. […] Human embryonic kidney HEK293T cells and immortalized fibroblasts were maintained in DMEM (Gibco) supplemented with 10% fetal bovine serum (Hyclone), 2 mmol/L L-glutamine, Hepes (Gibco), and 100 U/mL penicillin/streptomycin (Invitrogen). The lymphoma cell line HBL1 was maintained in RPMI (Life Technology) supplemented with 5% fetal bovine serum (Hyclone), 2 mmol/L 1-glutamine, Hepes (Gibco), and 100 U/mL penicillin/streptomycin (Invitrogen). Cells were cultured in incubators maintained at 37° C., with 5% CO2 and 85% humidity.
Western blotting: Cells at confluence from 12-well plate treatments were washed with PBS and lysed in 75 μL/well NP40 lysis buffer (Cell Signaling), subjected to agitation and centrifugation. Approximately 100 μg of total protein was used per analysis. Proteins were sized on a NuPAGE 12% Bis-Tris Gel, 1.0 mm×10 wells, proteins transferred to 0.2 μm nitrocellulose membrane for 60 min followed by blocking with 5% t milk in TBS-T for 1 h at ambient temperature with gentle shaking. […]

[2] = tested on: HBL1 cell line; assay: CellTiter-Glo cell viability (cytotox), HBL1 cell line, 72 hours; format: cell-based; conditions: HBL1 cell line, CellTiter-Glo; unit inferred
Description: (§2) CellTiter-Glo viability assays: Five μL of cells (2500 cells) from the 12-well plate culture were plated into white 1536-well plates (Greiner, Monroe, NC, 789173-F) in 6 replicates. CellTiter-Glo Luminescent Cell Viability Assay (CTG) (Promega, G7572), 2.5 μL/well reagent was added with a BioRAPTR FRD (Beckman Coulter, Sykesville, MD), plates were incubated in the dark at ambient temperature for 10 min, and luminescence measured with a ViewLux 1430 Ultra HTS (Perkin Elmer, Waltham, MA).

[3] = tested on: fibroblasts; assay: CellTiter-Glo ATP levels in fibroblasts; format: cell-based; conditions: fibroblasts, CellTiter-Glo
Description: as §1
as §2, with “Cell-Titer-Glo viability” for “CellTiter-Glo viability”

[4] = tested on: 293T cells; assay: CellTiter-Glo ATP levels in 293T cells; format: cell-based, human; conditions: 293T cells, CellTiter-Glo
Description: as §1
as §2, with “Cell-Titer-Glo viability” for “CellTiter-Glo viability”

[5] = biological target: T1, DHFR; format: cell-based; conditions: HBL1 cells, Western blot
Description: (§3) Human embryonic kidney HEK293T cells and immortalized fibroblasts were maintained in DMEM (Gibco) supplemented with 10% fetal bovine serum (Hyclone), 2 mmol/L L-glutamine, Hepes (Gibco), and 100 U/mL penicillin/streptomycin (Invitrogen). The lymphoma cell line HBL1 was maintained in RPMI (Life Technology) supplemented with 5% fetal bovine serum (Hyclone), 2 mmol/L 1-glutamine, Hepes (Gibco), and 100 U/mL penicillin/streptomycin (Invitrogen).
Western blotting: Cells at confluence from 12-well plate treatments were washed with PBS and lysed in 75 μL/well NP40 lysis buffer (Cell Signaling), subjected to agitation and centrifugation. Approximately 100 μg of total protein was used per analysis. […] Blots were first incubated with 1:2000 dilution of anti-human DHFR antibody (Abcam, ab124814, host rabbit) for 16 h at 4° C. with shaking, washed 3× with TBS-T and incubated with 1:2000 dilution of anti-human β-actin primary antibody (Cell Signaling, host mouse) for 1 h at ambient temperature with shaking. Blots were then washed 3× with TBS-T and incubated with 1:5000 HRP secondary antibody (Novex, anti-Rabbit IgG raised in Goat, 1 mg/ml) for 1 h at ambient temperature, then washed with 3×TBS-T and developed with Pierce ECL Dura reagent for 5 min. Immunoreactive bands were imaged on a ChemiDoc Imaging System (Bio-Rad) with 20 s chemiluminescence exposure. The molecular weight marker ladder was imaged with colorimetric auto-exposure, and both images merged.

[6] = biological target: T2, thymidylate synthase (TS) (Homo sapiens, UniProt P04818); assay: Western blot of thymidylate synthase levels in HBL1 cells; format: cell-based; set-up: Western blot detection of folate-cofactor dependent enzyme levels after treatment of HBL1 cells; endogenous in cells; host or cells: HBL1 lymphoma cell line; conditions: 1 μM, 16 h
[7] = biological target: T2, thymidylate synthase (TS); assay: Western blot of thymidylate synthase levels in fibroblasts; format: cell-based; conditions: 16 h
[8] = biological target: T3, human DHFR-HiBiT fusion protein (Homo sapiens, UniProt P00374); assay: DHFR-HiBiT assay (high-throughput DHFR abundance) in HBL1 cells; format: cell-based; conditions: for Dmax: % change in untreated cellular DHFR level (control), negative = degradation, positive = stabilization, HBL1, 24 h, read-out: efficacy (%); for DC50: HBL1 cells expressing DHFR-HiBiT, 24 h, degradation or stabilization potency, average of N = 2-5, read-out: Ave EC50
T3 construct: expressed in transfected cells; host or cells: HBL1 cells retrovirally infected with pBMN-Ires-Lyt-2 carrying DHFR-HiBiT
T3 sequence (P00374 with tags, fused parts or gaps): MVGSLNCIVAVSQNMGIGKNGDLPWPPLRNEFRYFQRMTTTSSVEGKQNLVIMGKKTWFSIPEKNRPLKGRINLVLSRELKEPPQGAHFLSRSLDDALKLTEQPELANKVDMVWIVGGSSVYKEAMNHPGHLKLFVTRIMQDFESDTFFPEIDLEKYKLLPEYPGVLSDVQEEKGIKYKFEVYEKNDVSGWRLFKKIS
Description: The human DHFR-HiBiT construct was synthetized (Bio Basic) and cloned into the retroviral vector pBMN-Ires-Lyt-2 (provided by G. Nolan, Stanford University, Stanford, CA) which expresses the coding region of mouse CD8a (Lyt-2) using the restriction sites BamHI/XhoI. All constructs were sequenced to validate authenticity. Infected cells were positively selected based on murine CD8a expression using magnetic beads (Miltenyi Biotech).
as §3, with “Cell culture: Human” for “Human”, “cells” for “cells and immortalized fibroblasts”, “1-glutamine, HEPES (Gibco)” for “L-glutamine, Hepes (Gibco),”, “were” for “was”, “L-glutamine, HEPES (Gibco)” for “1-glutamine, Hepes (Gibco),”
Transfection and retroviral infections: Transfections were performed using Lipofectamine 2000 (Invitrogen) according to the manufacturer's protocol. For retroviral infections, viruses were produced in HEK293T cells and used to infect HBL1 cell line. […] Supernatants containing the retrovirus were collected and filtered at 48- and 72-hours post-transfection. HBL1 cells were centrifuged and then resuspended with the retroviral supernatant with 8 μg/ml of polybrene. The cells were spin-infected twice on consecutive days at 2,500 rpm, at RT, for 90 minutes.
Lytic HiBiT Detection: Cells were plated in solid white 1536-well tissue culture plates (Greiner), at the concentration of 2000 cells/well. After treatment, an equal volume of Nano-Glo HiBiT Lytic Reagent (Promega) containing the substrate furimazine and Large BiT (LgBiT) was added to the cells according to the manufacturer's protocol. Cells were incubated for 10 min at room temperature, and luminescence was measured using a Perkin Elmer ViewLux microplate imager with 30 seconds of exposure time.

[9] = biological target: T2, thymidylate synthase (TS); assay: Western blot of thymidylate synthase levels in 293T cells; format: cell-based; conditions: 16 h
[10] = tested on: MTX-resistant HBL1 cell line; format: cell-based
Description: as §2

T2 sequence (P04818 2-313 limits assumed): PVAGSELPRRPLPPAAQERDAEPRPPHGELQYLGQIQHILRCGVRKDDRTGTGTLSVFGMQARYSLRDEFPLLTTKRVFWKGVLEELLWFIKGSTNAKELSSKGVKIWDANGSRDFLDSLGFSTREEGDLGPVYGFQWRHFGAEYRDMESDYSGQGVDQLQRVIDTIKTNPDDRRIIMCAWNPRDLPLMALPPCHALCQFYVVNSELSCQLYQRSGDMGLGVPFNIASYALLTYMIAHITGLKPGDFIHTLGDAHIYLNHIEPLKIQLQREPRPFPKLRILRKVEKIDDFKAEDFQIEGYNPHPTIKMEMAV

| SMILES | IC50 [2] | effect on DHFR protein levels [5] | Dmax [8] | DC50 [8] | other results |
| --- | --- | --- | --- | --- | --- |
| Cc1ncsc1-c1ccc(CNC(=O)C2C[C@@H](O)CN2C(=O)C(NC(=O)COCCOCCNC(=O)CC[C@H](NC(=O)c2ccc(N(C)Cc3cnc4nc(N)nc(N)c4n3)cc2)C(=O)O)C(C)(C)C)cc1 (stereo partly drawn) [NCGC00685995, (17S)-17-(4-(((2,4-diaminopteridin-6-yl)methyl)(methyl)amino)benzamido)-3-((4R)-4-hydroxy-2-((4-(4-methylthiazol-5-yl)benzyl)carbamoyl)pyrrolidine-1-carbonyl)-2,2-dimethyl-5,14-dioxo-7,10-dioxa-4,13-diazaoctadecan-18-oic acid] | 20.2 µM | no alterations in DHFR protein levels | – | – | effect on DHFR protein levels [1]: MTX-like stabilization of DHFR; effect on ATP levels [3]: not observed; effect on ATP levels [4]: not observed |
| CN(Cc1cnc2nc(N)nc(N)c2n1)c1ccc(C(=O)N[C@@H](CCC(=O)NCCCCCCCCNc2cccc3c2C(=O)N(C2CCC(=O)NC2=O)C3=O)C(=O)O)cc1 (stereo partly drawn) [NCGC00685928, N2-(4-(((2,4-diaminopteridin-6-yl)methyl)(methyl)amino)benzoyl)-N5-(8-((2-(2,6-dioxopiperidin-3-yl)-1,3-dioxoisoindolin-4-yl)amino)octyl)-L-glutamine] | 23.7 µM | robust DHFR depletion | 65% | – | effect on TS protein level [6]: slight increase in TS; effect on TS protein level [7]: low but detectable increases in TS; effect on TS protein level [9]: no significant change in TS levels |
| Cc1ncsc1-c1ccc(CNC(=O)C2C[C@@H](O)CN2C(=O)C(NC(=O)COCCOCCOCCOCCNC(=O)CC[C@H](NC(=O)c2ccc(N(C)Cc3cnc4nc(N)nc(N)c4n3)cc2)C(=O)O)C(C)(C)C)cc1 (stereo partly drawn) [NCGC00685964, (23S)-23-(4-(((2,4-diaminopteridin-6-yl)methyl)(methyl)amino)benzamido)-3-((4R)-4-hydroxy-2-((4-(4-methylthiazol-5-yl)benzyl)carbamoyl)pyrrolidine-1-carbonyl)-2,2-dimethyl-5,20-dioxo-7,10,13,16-tetraoxa-4,19-diazatetracosan-24-oic acid] | 21.5 µM | no alterations in DHFR protein levels | – | – | – |
| CN(Cc1cnc2nc(N)nc(N)c2n1)c1ccc(C(=O)NC(CC(F)C(=O)O)C(=O)O)cc1 (stereo not shown) [FMTX, 2-(4-(((2,4-diaminopteridin-6-yl)methyl)(methyl)amino)benzamido)-4-fluoropentanedioic acid, reference compound] | 1.1 µM | – | -115% | 0.28 µM | cellular toxicity in MTX-resistant HBL1 cell line [10]: greatly decreased |
| CN1C(=O)CCC(N2C(=O)c3cccc(NCCCCCCCCNC(=O)CC[C@H](NC(=O)c4ccc(N(C)Cc5cnc6nc(N)nc(N)c6n5)cc4)C(=O)O)c3C2=O)C1=O (stereo partly drawn) [NCGC00687847, N2-(4-(((2,4-diaminopteridin-6-yl)methyl)(methyl)amino)benzoyl)-N5-(8-((2-(1-methyl-2,6-dioxopiperidin-3-yl)-1,3-dioxoisoindolin-4-yl)amino)octyl)-L-glutamine] | 25.4 µM | – | -93.2% | 3 µM | – |
| Nc1nc(N)c2nc(CN(CCCCCCNC(=O)CCOCCOCCOCCOCCOc3cccc4c3C(=O)N(C3CCC(=O)NC3=O)C4=O)c3ccc(C(=O)N[C@@H](CCC(=O)O)C(=O)O)cc3)cnc2n1 (stereo partly shown) [NCGC00690395, (4-(((2,4-diaminopteridin-6-yl)methyl)(1-((2-(2,6-dioxopiperidin-3-yl)-1,3-dioxoisoindolin-4-yl)oxy)-15-oxo-3,6,9,12-tetraoxa-16-azadocosan-22-yl)amino)benzoyl)glutamic acid] | 33.4 µM | – | 32.8% | – | – |
